According to patent US5955423A (priority 1995, dated 1999):

Experiments:
[1] = test system: KB (human nasopharyngeal carcinoma) cell line; test: Cytotoxicity against KB cell line; assay type: cell-based
[2] = test system: LoVo (human colon-carcinoma) cell line; test: Cytotoxicity against LoVo cell line; assay type: cell-based
[3] = test system: murine leukemia (L1210 or P388), murine solid tumor, human solid tumor and low malignancy fibroblast (LML) cells
[4] = test system: Colon 38 (colon adenocarcinoma #38); settings: Exp # 1560; SC Colon 38; 8 inj. IV; total dose 10.3 mg/kg
Procedure: (§1) Gross log kill is defined as T-C/3.2 Td where T is the median time in days for the tumors of the treated group to reach 750 mg, C is the median time in days for the tumors of the control group to reach 750 mg, and Td is the tumor volume doubling time.

H125 Human Adenosq-lung = settings: Exp # 1823; SC H125 Human Adenosq-lung, SCID mice; 8 inj. IV; total dose 14.4 mg/kg
Procedure: as §1

[5] = test system: murine and human tumors implanted in mice
Procedure: as §1

strains of Cryptococcus = settings: found by researchers at Merck; cited from earlier work
MX-1 Human Breast = test: In vivo activity, SC MX-1 tumor; settings: Exp # 1806; SC MX-1 Human Breast, SCID mice; 8 inj. IV; total dose 12 mg/kg
Procedure: as §1

M17/0 (Adr. Sens.) = test: In vivo activity, SC M17/0 tumor; settings: Exp # 1833; SC M17/0 (Adr. Sens.); 5 inj. IV; total dose 5.4 mg/kg
Procedure: as §1

LNCaP Human Prostate = test: In vivo activity, SC LNCaP tumor; settings: Exp # 1841, 6 inj. IV, total dose 6.5 mg/kg
Procedure: as §1

[6] = test system: Human Sm Cell L. DMS273 SCID; test: In vivo activity, SC DMS273 tumor; settings: Exp # 1596, 6 inj. IV, total dose 7.3 mg/kg
Procedure: as §1

[7] = test system: Colon 51 (colon adenocarcinoma #51); test: In vivo activity, SC Colon 51 tumor; settings: Exp # 1636, 7 inj. IV, total dose 28.1 mg/kg
Procedure: as §1

Mam 16/C (mammary #16/C) = test: In vivo activity, SC Mam 16/C tumor; settings: Exp # 1720, 5 inj. IV, total dose 13.2 mg/kg
Procedure: as §1

[8] = test system: SKOV3 (human ovarian carcinoma) cell line; test: Cytotoxicity against SKOV3 cell line; settings: Table 2
[9] = test system: Mam 16/Taxol (taxol-resistant mammary #16/C/RP); test: In vivo activity, SC Mam 16/Taxol tumor; settings: Exp # 1733, 5 inj. IV, total dose 16.5 mg/kg
Procedure: as §1

COc1ccc(C[C@H]2NC(=O)/C=C/C[C@@H]([C@H](C)[C@H]3O[C@@H]3c3ccccc3)OC(=O)[C@H](CC(C)C)OC(=O)[C@H](C)CNC2=O)cc1Cl [Cryptophycin 1]
KB IC50 ([1]; Table 1): 0.005 ng/mL
KB IC50 ([1]; Table 2): 0.0025 ng/mL
LoVo IC50 ([2]; Table 1): 0.003 ng/mL
LoVo IC50 ([2]; Table 2): 0.001 ng/mL
Differential in Zone Units, Corbett Assay ([3]; μg/disk as for E3): > 400 Zone Units
Type of Cytotoxicity, Corbett Assay ([3]; μg/disk: 1 12.5, 2 25, 3 25, 4 20, 5 2.9, 6 250, 8 30, 5-FU 2.5, VP-16 5, taxol 0.2, ^c selective against drug-sensitive and drug-resistant cell lines, ^d drug-sensitive cell lines only): E/T
Cures [4]: 0/5
Log Kill [4]: 1.5
T/C [4]: 6%
% Body Wt. Loss at Nadir (H125 Human Adenosq-lung): -15%
Cures (H125 Human Adenosq-lung): 0/5
Log Kill (H125 Human Adenosq-lung): 1.1
T/C (H125 Human Adenosq-lung): 9%
dead (H125 Human Adenosq-lung): 1/5
tumor burden T/C ([5]; five early stage murine tumors (colon #38, #51, taxol-sensitive and taxol-resistant mammary #16/C/RP, pancreatic #03) and MX-1 breast, H125 lung in SCID mice): less than 10%
lethal toxicity observed during testing ([5]; in vivo testing): attributed to leucopenia
activity against strains of Cryptococcus (strains of Cryptococcus): very active against strains of Cryptococcus
% Body Wt. Loss at Nadir (MX-1 Human Breast): -3%
Cures (MX-1 Human Breast): 0/5
Log Kill (MX-1 Human Breast): 2.0
T/C (MX-1 Human Breast): 3%
% Body Wt. Loss at Nadir (M17/0 (Adr. Sens.)): -10%
Log Kill (M17/0 (Adr. Sens.)): < 1
T/C (M17/0 (Adr. Sens.)): 23%
% Body Wt. Loss at Nadir (LNCaP Human Prostate): -6%
T/C (LNCaP Human Prostate): 26%
% Body Wt. Loss at Nadir [6]: 0%
Cures [6]: 0/5
Log Kill [6]: < 1
T/C [6]: 27%
% Body Wt. Loss at Nadir [7]: -11%
Log Kill [7]: 1.3
T/C [7]: 7%
% Body Wt. Loss at Nadir (Mam 16/C (mammary #16/C)): -1%
Cures (Mam 16/C (mammary #16/C)): 0/5
Log Kill (Mam 16/C (mammary #16/C)): 1.4
T/C (Mam 16/C (mammary #16/C)): 5%
SKOV3 IC50 [8]: 0.026 ng/mL
% Body Wt. Loss at Nadir [9]: 0%
Log Kill [9]: 1.8
T/C [9]: 2%
